“Also recorded” adds a separate entry of the source.
Legend:
mPGES-1 = molecular target: T1, mPGES-1 (Homo sapiens, UniProt O14684); assay: cell-free mPGES-1 activity assay (microsomes of IL-1β-stimulated A549 cells, PGE2 formation from PGH2); type: biochemical; conditions: for inhibition of mPGES-1 activity (in words): tested at / up to 10 μM
T1 construct: using microsomes of IL-1β-stimulated A549 cells as enzyme source; endogenous in cells; host or cells: A549 cells, IL-1β-induced, microsomal fraction
T1 sequence (O14684 1-152): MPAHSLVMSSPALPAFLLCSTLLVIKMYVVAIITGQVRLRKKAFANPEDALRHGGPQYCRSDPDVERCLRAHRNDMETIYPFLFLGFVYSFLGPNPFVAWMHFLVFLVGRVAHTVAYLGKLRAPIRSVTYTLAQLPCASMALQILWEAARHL

COX enzymes = tested on: COX enzymes; design: method as in PMID 17945191, PMID 20188172, PMID 24354175; conditions: cited from earlier work
[1] = tested on: phorbol ester-induced ear inflammation; design: method as in PMID 16621377; conditions: applied topically, mice; cited from earlier work

CC(C)=CCC[C@H](C(=O)O)[C@@H]1CC[C@]2(C)C3=C(CC[C@@]12C)[C@@]1(C)CC[C@@H](O)C(C)(C)[C@@H]1CC3 [Compound 5, 3-α-hydroxy-8,24-dienetirucallic acid]
inhibition at 10 µM (mPGES-1; at 10 μM): 96%

CC(=O)O[C@@H]1CC[C@]2(C)C3=C(CC[C@H]2C1(C)C)[C@@]1(C)CC[C@@H]([C@H](CCC=C(C)C)C(=O)O)[C@]1(C)CC3 [Compound 6, 3α-acetoxy-8,24-dienetirucallic acid]
concentration range of COX enzyme inhibition (COX enzymes): two-digit micromolar range

C=C(C)[C@@H]1CC[C@]2(C)[C@H](CC=C3[C@@H]4[C@@H](C)[C@H](C)CC[C@]4(C)CC[C@]32C)[C@@]1(C)CCC(=O)O [Compound 11, roburic acid]
inhibition of mPGES-1 activity (in words) (mPGES-1): failed to significantly inhibit; also recorded: not active
concentration range of COX enzyme inhibition (COX enzymes): two-digit micromolar range

CC(C)[C@@H]1CC[C@]2(C)[C@H](CC=C3[C@@H]4[C@@H](C)[C@H](C)CC[C@]4(C)CC[C@]32C)[C@@]1(C)CCC(=O)O [Compound 12, 4,(23)-dihydroroburic acid]
inhibition of mPGES-1 activity (in words) (mPGES-1): failed to significantly inhibit; also recorded: not active

CC(C)[C@@H]1CC[C@]2(C)[C@H](CC=C3[C@@H]4CC(C)(C)CC[C@]4(C)CC[C@]32C)[C@@]1(C)CCC(=O)O [Compound 14, 4,(23)-dihydronyctanthic acid]
inhibition of mPGES-1 activity (in words) (mPGES-1): failed to significantly inhibit; also recorded: inactive

C=C(C)[C@@H]1CC[C@]2(C)CC[C@]3(C)[C@H](CC[C@@H]4[C@@]5(C)CC[C@H](O)[C@](C)(C(=O)O)[C@@H]5CC[C@]43C)[C@@H]12 [Compound 15, Lupeolic acid]
inhibition of phorbol ester-induced ear inflammation [1]: inhibited

C=C(C)[C@@H]1CC[C@]2(C)CC[C@]3(C)[C@H](CC[C@@H]4[C@@]5(C)CC[C@H](OC(C)=O)[C@](C)(C(=O)O)[C@@H]5CC[C@]43C)[C@@H]12 [Compound 16, 3-O-acetyllupeolic acid]
inhibition of phorbol ester-induced ear inflammation [1]: inhibited
